These results are taken from patent US20160194631A1, “Methods for Modulation of Autophagy Through the Modulation of Autophagy-Inhibiting Gene Products” (Harvard Medical School, priority 2009, published 2016).

Assay [1] relates to H4 cells stably expressing LC3-GFP. The assay can be described thus: LC3-GFP autophagosome translocation image-based assay. In kind it is cell-based, human. Conditions: H4 cells treated with tunicamycin. As to the method: H4 human neuroblastoma cells were cultured under standard tissue culture conditions in DMEM media supplemented with 10% normal calf serum, penicillin/streptomycin, sodium pyruvate (Invitrogen) and, where appropriate, 0.4-1.2 mg/mL G418. LC3-GFP and FYVE-dsRed H4 cells were generated as described in Zhang et al., PNAS, 102, 15545-15550 (2007). To create a stable line expressing Lamp1, H4 cells were transfected with Lamp1-RFP plasmid using TransIT LT1 reagent (Minis), followed by selection with 0.4 mg/mL G418. Bcl-2 expressing cell lines were created by infecting LC3-GFP and FYVE-dsRed H4 cells with pBabe-Bcl-2 retrovirus, followed by selection with […] puromycin.
For the cytokine assays, cells were seeded at 0.5×10^5 in full medium in either 24-well (western) or 96-well (LC3-GFP quantification) plates. After 24 hours, cells were washed in PBS and serum-free OptiMEM medium (Invitrogen) was added along with the indicated growth factors and/or cytokines for an additional 24 hours. Growth factors and cytokines used include human TNFα (Cell Sciences), human LIF (GeneScript Corporation), human FGF2 (ProSpec), human IGF1 (ProSpec), human SDF1 (Prospec) and human CLCF1 (R&D Systems). To induce starvation, cells were cultured for 24 hours in full media, washed in PBS and cultured for additional 4 hours in HBSS bedia (Invitrogen). […]
For high-throughput screens, cells were imaged on an automated CellWoRx microscope (Applied Precision) at 10× magnification using 2 wavelengths (350 nm to detect Hoechst, 488 nm to detect LC3-GFP) for the primary screens and 3 wavelengths (350 nm, 488 nm and 550 nm to detect Lamp1-RFP or FYVE-dsRed) for the secondary screens. All images were quantified using VHSscan and VHSview image analysis software (Cellomics). Total cell number, total LC3-GFP intensity/cell as well as number, area and intensity of LC3-GFP positive autophagosomes/cell were scored. All dead and mitotic cells were excluded from analysis based on nuclear intensity. The final autophagy score for each well was obtained by multiplying the total autophagosome intensity/cell by the number of autophagosomes/cell and dividing by the average cell intensity. This formula was empirically determined to accurately measure LC3-GFP translocation from cytosol into autophagosomes as reflected by consistently significant z-scores and p-values when using siRNAs against mTOR and Atg5 controls. FYVE-dsRed and Lamp1-RFP scores were obtained in a manner similar to LC3-GFP scores, except that for Lamp1-RFP, which measures total accumulation of the reporter rather than its translocation, division by the average cell intensity was omitted.
For low-throughput follow-up analysis, cells were grown on glass cover slips. Following fixation in 4% paraformaldehyde and counterstaining with Hoechst, cover slips were mounted in 50% glycerol, 0.1% n-propyl gallate/PBS. Cells were imaged at 40× magnification on a Nikon Eclipse E800 microscope. Cell numbers, cell area and intensity, as well as autophagosome number and intensity, were quantified using Metamorph software. Autophagy was scored as number of autophagosomes per cell.
Human neuroblastoma H4 cells stably expressing the LC3-GFP reporter were used to identify genes involved in the regulation of autophagy in mammals. […] When autophagy is induced in these cells, LC3-GFP is recruited from the cytosol and can be visualized in a punctate pattern corresponding to autophagosomes. In order to validate the system, cells were transfected with siRNA against either the essential autophagy mediator ATG5 or against mTOR, a suppressor of starvation-induced autophagy. Following 72 hours of incubation under normal nutritional conditions, […].

A further assay deals with GRP78 and GRP94. The assay can be described thus: In-cell-western of KDEL (GRP78/GRP94) expression (ER stress). In kind it is cell-based, human. Conditions: H4 cells treated with tunicamycin. As to the method:
For quantitative analysis of mTORC1 signaling and induction of endoplasmic reticulum stress, in-cell-western analysis of rpS6 phosphorylation and KDEL (GRP78/GRP94) expression (‘KDEL’ disclosed as SEQ ID NO: 2), respectively, were performed. H4 cells were cultured in 384-well plates and fixed and counterstained as described for the LC3-GFP assay. Following imaging, the cells were permeabilized in PBS containing 0.2% Tx-100 and stained with Alexa-680 NETS-ester, a non-specific lysine reactive probe used to measure relative cell number, at 20 ng/mL for 15 minutes. Subsequently, the cells were washed with PBS containing 0.2% Tx-100 and incubated for 30 minutes in blocking buffer (LiCOR Blocking Buffer diluted 1:1 with PBS+0.2% Tx-100). Cells were then incubated overnight with a rabbit-anti-rpS6 phospho-235/236 (Cell Signaling Technologies), or mouse-anti-KDEL (Stressgen) antibody (‘KDEL’ disclosed as SEQ ID NO: 2) diluted 1:1000 in blocking buffer. […] The intensities of both, the rpS6 phospho-235/236 or KDEL staining (‘KDEL’ disclosed as SEQ ID NO: 2), and of NHS-ester staining were integrated, and the normalized phospho-S6 or KDEL score (‘KDEL’ disclosed as SEQ ID NO: 2) were calculated by dividing phospho-rpS6 or KDEL intensity by NHS-ester intensity (‘KDEL’ disclosed as SEQ ID NO: 2). […]

With tunicamycin [reference compound], in assay [1], the autophagy result was “increase in autophagy”. For the same substance, the “levels of GRP78 and GRP94” value with GRP78 and GRP94 is reported as “dose-dependent up-regulation”.
